Measured values: publication PMC3894558, “Chemical signatures and new drug targets for gametocytocidal drug development” (Scientific Reports, 2014)
Like-named read-outs stand apart in the source and are kept apart here.

System: P. falciparum 3D7 gametocytes
Assay: alamarBlue gametocyte viability assay, strain 3D7
Type: cell-based, Plasmodium falciparum
Conditions: for Max Resp: DMSO set at 0%, 100 nM epoxomicin set at -100%; call rule not given here
[1] = Malaria Box, stages III-V 3D7 gametocytes
[2] = Malaria Box, stages III-V 3D7 gametocytes, 11 concentrations, 1:3 dilution, read-out: IC50
[3] = Malaria Box, stages III-V 3D7 gametocytes, 11 concentrations, 1:3 dilution

Compound | IC50 [2] | IC50 [3] | Max Resp (Malaria Box) | Curve Class [1] | reduction of gametocyte viability (Malaria Box screen) | IC50 (P. falciparum 3D7 gametocytes, mean of at least 3 independent experiments, read-out: Gametocyte IC50)
CCOc1ccc2c(c1)CN(Cc1ccc(Cl)cc1)CO2 [MMV000443] | 1.32 µM | – | -54% | -1.2 | – | –
COc1ccc(C2C(C(=O)Nc3cccc(OC)c3)c3ccccc3C(=O)N2C2CCCCC2)cc1 (centres unmarked) [MMV008455] | 16.6 µM | – | -89% | -2.1 | – | –
CCOc1ccc(N2C(N)=NC(N)=NC2(C)C)cc1.Cl [MMV667486] | – | Inactive | -4% | 4 | – | –
CCc1ccc(CNCC(O)c2ccccc2)cc1.Cl (centres unmarked) [MMV665812] | 5.26 µM | – | -74% | -1.2 | – | –
CCCCNCC(O)(c1ccc(Cl)cc1)c1ccc(Cl)cc1 [MMV665929] | 2.96 µM | – | -73% | -1.2 | – | –
COc1cc(C(=O)Nc2nc3c(cc4c5c(cccc53)CC4)s2)cc(OC)c1OC [MMV396665] | – | Inactive | -24% | 4 | – | –
COc1cc(C(=O)ON=C(N)Cc2cccc3ccccc23)cc(OC)c1OC [MMV666687] | 14.8 µM | – | -100% | -2.1 | – | –
CCn1nc(-c2ccc(C(=O)OC)cc2)nc2c(=O)n(C)c(=O)nc1-2 [MMV306025] | 4.69 µM | – | -98% | -1.1 | – | –
CCCCCCn1c(=N)n(CC(O)COc2cccc(C)c2)c2ccccc21.Cl (centres unmarked) [MMV000445] | 7.43 µM | – | -110% | -1.1 | – | –
CCOc1cccc2sc(N(Cc3cccnc3)C(=O)C3CCCCC3)nc12 [MMV001230] | – | Inactive | -26% | 4 | – | –
CCOc1cc(CNC(C)C(O)c2ccccc2)cc(Cl)c1OCC (centres unmarked) [MMV396633] | 11.8 µM | – | -72% | -2.2 | – | –
COc1ccc(-c2nc3cc(Cc4ccc5[nH]c(-c6ccc(OC)cc6)nc5c4)ccc3[nH]2)cc1 [MMV007384] | 37.2 µM | – | -59% | -2.2 | – | –
CCC1(C)CC(CCNCc2ccccc2O)(c2ccc(C)cc2)CCO1 (centres unmarked) [MMV019406] | 0.418 µM | – | -82% | -1.1 | > 75% | < 1 µM
CN(N=O)C1=C(NC2CCCCC2)C(=O)c2ccccc2C1=O [MMV667492] | 2.35 µM | – | -59% | -1.2 | – | –
CCCCCCC(O)(c1ccc(F)cc1)C(CN1CCOCC1)c1ccccc1.Cl (centres unmarked) [MMV000621] | 37.2 µM | – | -59% | -2.2 | – | –
C=C(C)CCC(C)N1CCC(N2CCC(C(=O)NCCc3ccccc3)CC2)CC1 (centres unmarked) [MMV666110] | 29.6 µM | – | -73% | -2.2 | – | –
Cc1cc(Nc2ccc3ccccc3c2)n2ncnc2n1 [MMV011099] | – | Inactive | -5% | 4 | – | –
COc1ccccc1CNC(=O)C1c2ccccc2C(=O)N(CC(C)C)C1c1cccs1 (centres unmarked) [MMV000648] | – | Inactive | -46% | -2.2 | – | –
CCCCCCc1cc(O)c2c3c(c(=O)oc2c1)CCC(C)C3 (centres unmarked) [MMV665987] | – | Inactive | 0% | 4 | – | –
O=C(CCc1ccco1)NC1CCN(CC2(c3ccc(Cl)cc3)CCC2)CC1 [MMV666108] | – | Inactive | -51% | -2.2 | – | –

Continued, in another order:

IC50 [2] | IC50 [3] | Compound | Max Resp (Malaria Box) | Curve Class [1] | reduction of gametocyte viability (Malaria Box screen) | IC50 (P. falciparum 3D7 gametocytes, mean of at least 3 independent experiments, read-out: Gametocyte IC50)
14.8 µM | – | OCCNc1nc(Nc2ccc(Cl)c(Cl)c2)nc2ccccc12 [MMV001041] | -63% | -2.2 | – | –
1.32 µM | – | CC(NCc1ccccc1)c1cc(Cl)ccc1O (centres unmarked) [MMV665789] | -58% | -1.2 | – | –
– | Inactive | Cc1cc(Nc2ccc(C)c(Cl)c2)n2nc(C(F)(F)F)nc2n1 [MMV665874] | -2% | 4 | – | –
2.96 µM | – | CCOC(=O)C1=C(C)N=c2sc(=Cc3cc(Cl)ccc3O)c(=O)n2C1c1ccc(OC)cc1 (centres unmarked) [MMV665971] | -40% | -1.2 | – | –
– | Inactive | COc1ccccc1CNC(=O)CCn1c(=O)[nH]c2ccsc2c1=O [MMV019066] | -11% | 4 | – | –
5.26 µM | – | CCOc1cc2c(cc1OCC)C(c1cc(Cl)c(O)c(OCC)c1)NCC2 (centres unmarked) [MMV000481] | -81% | -1.1 | – | –
1.05 µM | – | COc1ccc(CN2CCCC(C(=O)c3ccc(C(F)(F)F)cc3)C2)c(O)c1 (centres unmarked) [MMV666060] | -45% | -1.2 | – | –
1.66 µM | – | COc1cccc(O)c1CN1CCC2(CCCN(Cc3ccc(F)cc3)C2)C1 (centres unmarked) [MMV666061] | -57% | -1.2 | – | –
14.8 µM | – | O=C(Nc1ccccc1O)c1ccc(Oc2cccc(C(=O)Nc3ccccc3O)c2)cc1 [MMV665888] | -76% | -2.2 | – | –
– | Inactive | COc1ccc(-c2cc3c(SCC(=O)Nc4cc(C(F)(F)F)ccc4Cl)nccn3n2)cc1 [MMV396679] | 0% | 4 | – | –
– | Inactive | COc1ccc(C(=O)Nc2ccc(Cl)cc2C(=O)Nc2ccncc2)cc1 [MMV665799] | -28% | 4 | – | –
– | Inactive | Nc1ccn([C@@H]2O[C@H](CO)[C@@H](O)[C@H]2O)c(=O)n1 [MMV638723] | -5% | 4 | – | –
– | Inactive | O=c1c2c([nH]c3ccccc13)CCCC2 [MMV665843] | -7% | 4 | – | –
29.6 µM | – | CCCCCCc1cc2cc(-c3csc(C=Cc4ccccc4)n3)c(=O)oc2cc1O [MMV666692] | -54% | -2.2 | – | –
3.32 µM | – | Cc1cc(NC(=O)C2c3ccccc3C(=O)N(CC(C)C)C2c2cccs2)no1 (centres unmarked) [MMV006429] | -82% | -1.1 | – | –
11.8 µM | – | COc1cccc(C(=O)NC(c2ccc(C)cc2)c2cc(Cl)c3cccnc3c2O)c1 (centres unmarked) [MMV665969] | -76% | -2.2 | – | –
– | Inactive | COc1ccc(N2CCN(C(CNC(=O)CC(C)(C)C)c3ccc4c(c3)OCO4)CC2)cc1 (centres unmarked) [MMV665908] | -26% | 4 | – | –
– | Inactive | O=C(Nc1ccc(CN2CCOCC2)cc1)c1ccc(-c2ccc(Br)cc2)o1 [MMV665901] | -41% | -2.4 | – | –
– | Inactive | CCOc1ccc(-c2nc(NC(=O)c3cccc(S(C)(=O)=O)c3)sc2C)cc1 [MMV665913] | -15% | 4 | – | –
– | Inactive | COc1ccc(C2=C(c3ccc(OC)cc3)C3(c4ccccc4)C(=O)C2(c2ccccc2)C2C(=O)N(c4ccc(C)cc4)C(=O)C23)cc1 (centres unmarked) [MMV666101] | 1% | 4 | – | –
– | Inactive | Cc1cc(NC(=O)c2cccc(C(F)(F)F)c2)n(-c2nc(-c3ccc4c(c3)OCO4)cs2)n1 [MMV396681] | -3% | 4 | – | –
29.6 µM | – | Cc1ccc(CN2CCC(C(=O)Nc3ccc(-c4cc5ccccc5[nH]4)cc3)CC2)o1 [MMV666071] | -71% | -2.2 | – | –
